Test results reported in patent publication US10597388B2, “Pyridazinone herbicides” (FMC CORPORATION, priority 2014, dated 2020).

How the values were obtained:
Test in all cases: Test D controlled growth environment herbicide test, pre- and postemergence
Format in all cases: in vivo
[1] = test system: field poppy (Papaver rhoeas)
Procedure, shortened: (§1)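 Rating is visual, 0–100 scale (100 = complete control), made against untreated plants 14–21 d after treatment in controlled growth conditions. Postemergence sprays went onto 1- to 4-leaf plants in peat medium; preemergence sprays onto silt loam after sowing; formulation included a surfactant.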

[2] = test system: deadnettle (henbit deadnettle, Lamium amplexicaule)
Procedure, shortened: as §1

[3] = test system: wheat, spring (spring wheat, Triticum aestivum)
Procedure, shortened: as §1

[4] = test system: speedwell (bird's-eye speedwell, Veronica persica)
Procedure, shortened: as §1

[5] = test system: ryegrass, Italian (Italian ryegrass, Lolium multiflorum)
Procedure, shortened: as §1

[6] = test system: barley, spring (spring barley, Hordeum vulgare)
Procedure, shortened: as §1

[7] = test system: oat, wild (wild oat, Avena fatua)
Procedure, shortened: as §1

[8] = test system: Russian thistle (Salsola kali)
Procedure, shortened: as §1

[9] = test system: windgrass (Apera spica-venti)
Procedure, shortened: as §1

[10] = test system: buckwheat, wild (wild buckwheat, Polygonum convolvulus)
Procedure, shortened: as §1

[11] = test system: oilseed rape (Brassica napus)
Procedure, shortened: as §1

[12] = test system: canarygrass (Phalaris minor)
Procedure, shortened: as §1

[13] = test system: radish, wild (wild radish, Raphanus raphanistrum)
Procedure, shortened: as §1

[14] = Postemergence, 31 g ai/ha, scale 0 to 100 (0 no effect, 100 complete control)
[15] = Postemergence, 125 g ai/ha, visual rating on scale 0 (no effect) to 100 (complete control), 14 to 21 d
[16] = Postemergence, 250 g ai/ha, scale 0 to 100 (0 no effect, 100 complete control)
[17] = Preemergence, 62 g ai/ha, scale 0 to 100 (0 no effect, 100 complete control)
[18] = Preemergence, 125 g ai/ha, scale 0 to 100 (0 no effect, 100 complete control)
[19] = Preemergence, 250 g ai/ha, scale 0 to 100, 0 no effect, 100 complete control
[20] = postemergence, 62 g ai/ha, scale 0 to 100, 0 no effect, 100 complete control

Cc1nn(C)c(=O)c(-c2ccc(Br)c3ccccc23)c1O [Compound 75]
Field Poppy plant response rating [1, 14]: 100
Plant response rating, Field Poppy [1, 15]: 100
Plant response rating, Field Poppy [1, 16]: 100
Plant response rating (scale of 0 to 100), Field Poppy ([1]; Preemergence, 31 g ai/ha): 0
Plant response rating, Field Poppy [1, 17]: 95
Plant response rating, Field Poppy [1, 18]: 100
Plant response rating, Field Poppy [1, 19]: 100
Plant response rating, Field Poppy [1, 20]: 100
Deadnettle plant response rating [2, 14]: 75
Plant response rating, Deadnettle [2, 15]: 95
Plant response rating, Deadnettle [2, 16]: 100
Plant response rating (scale of 0 to 100), Deadnettle ([2]; Preemergence, 31 g ai/ha): 30
Plant response rating, Deadnettle [2, 17]: 55
Plant response rating, Deadnettle [2, 18]: 90
Plant response rating, Deadnettle [2, 19]: 100
Plant response rating, Deadnettle [2, 20]: 90
Wheat, Spring plant response rating [3, 14]: 0
Plant response rating, Wheat, Spring [3, 15]: 5
Plant response rating, Wheat, Spring [3, 16]: 15
Plant response rating (scale of 0 to 100), Wheat, Spring ([3]; Preemergence, 31 g ai/ha): 0
Plant response rating, Wheat, Spring [3, 17]: 25
Plant response rating, Wheat, Spring [3, 18]: 35
Plant response rating, Wheat, Spring [3, 19]: 45
Plant response rating, Wheat, Spring [3, 20]: 0
Speedwell plant response rating [4, 14]: 80
Plant response rating, Speedwell [4, 15]: 100
Plant response rating, Speedwell [4, 16]: 100
Plant response rating (scale of 0 to 100), Speedwell ([4]; Preemergence, 31 g ai/ha): 95
Plant response rating, Speedwell [4, 17]: 100
Plant response rating, Speedwell [4, 18]: 100
Plant response rating, Speedwell [4, 19]: 100
Plant response rating, Speedwell [4, 20]: 100
Ryegrass, Italian plant response rating [5, 14]: 90
Plant response rating, Ryegrass, Italian [5, 15]: 95
Plant response rating, Ryegrass, Italian [5, 16]: 98
Plant response rating (scale of 0 to 100), Ryegrass, Italian ([5]; Preemergence, 31 g ai/ha): 95
Plant response rating, Ryegrass, Italian [5, 17]: 100
Plant response rating, Ryegrass, Italian [5, 18]: 100
Plant response rating, Ryegrass, Italian [5, 19]: 0
Plant response rating, Ryegrass, Italian [5, 20]: 95
Barley, Spring plant response rating [6, 14]: 0
Plant response rating, Barley, Spring [6, 15]: 0
Plant response rating, Barley, Spring [6, 16]: 0
Plant response rating (scale of 0 to 100), Barley, Spring ([6]; Preemergence, 31 g ai/ha): 0
Plant response rating, Barley, Spring [6, 17]: 0
Plant response rating, Barley, Spring [6, 18]: 0
Plant response rating, Barley, Spring [6, 19]: 0
Plant response rating, Barley, Spring [6, 20]: 0
Oat, Wild plant response rating [7, 14]: 50
Plant response rating, Oat, Wild [7, 15]: 85
Plant response rating, Oat, Wild [7, 16]: 80
Plant response rating (scale of 0 to 100), Oat, Wild ([7]; Preemergence, 31 g ai/ha): 55
Plant response rating, Oat, Wild [7, 17]: 65
Plant response rating, Oat, Wild [7, 18]: 80
Plant response rating, Oat, Wild [7, 19]: 85
Plant response rating, Oat, Wild [7, 20]: 70
Russian Thistle plant response rating [8, 14]: 80
Plant response rating, Russian Thistle [8, 15]: 85
Plant response rating, Russian Thistle [8, 16]: 85
Plant response rating (scale of 0 to 100), Russian Thistle ([8]; Preemergence, 31 g ai/ha): 0
Plant response rating, Russian Thistle [8, 17]: 0
Plant response rating, Russian Thistle [8, 18]: 25
Plant response rating, Russian Thistle [8, 19]: 35
Plant response rating, Russian Thistle [8, 20]: 80
Windgrass plant response rating [9, 14]: 10
Plant response rating, Windgrass [9, 15]: 40
Plant response rating, Windgrass [9, 16]: 65
Plant response rating (scale of 0 to 100), Windgrass ([9]; Preemergence, 31 g ai/ha): 0
Plant response rating, Windgrass [9, 17]: 15
Plant response rating, Windgrass [9, 18]: 50
Plant response rating, Windgrass [9, 19]: 85
Plant response rating, Windgrass [9, 20]: 15
Buckwheat, Wild plant response rating [10, 14]: 100
Plant response rating, Buckwheat, Wild [10, 15]: 100
Plant response rating, Buckwheat, Wild [10, 16]: 100
Plant response rating (scale of 0 to 100), Buckwheat, Wild ([10]; Preemergence, 31 g ai/ha): 0
Plant response rating, Buckwheat, Wild [10, 17]: 0
Plant response rating, Buckwheat, Wild [10, 18]: 0
Plant response rating, Buckwheat, Wild [10, 19]: 50
Plant response rating, Buckwheat, Wild [10, 20]: 100
Oilseed Rape plant response rating [11, 14]: 70
Plant response rating, Oilseed Rape [11, 15]: 95
Plant response rating, Oilseed Rape [11, 16]: 100
Plant response rating (scale of 0 to 100), Oilseed Rape ([11]; Preemergence, 31 g ai/ha): 50
Plant response rating, Oilseed Rape [11, 17]: 75
Plant response rating, Oilseed Rape [11, 18]: 100
Plant response rating, Oilseed Rape [11, 19]: 100
Plant response rating, Oilseed Rape [11, 20]: 95
Canarygrass plant response rating [12, 14]: 15
Plant response rating, Canarygrass [12, 15]: 30
Plant response rating, Canarygrass [12, 16]: 50
Plant response rating (scale of 0 to 100), Canarygrass ([12]; Preemergence, 31 g ai/ha): 20
Plant response rating, Canarygrass [12, 17]: 55
Plant response rating, Canarygrass [12, 18]: 70
Plant response rating, Canarygrass [12, 19]: 75
Plant response rating, Canarygrass [12, 20]: 15
Radish, Wild plant response rating [13, 14]: 95
Plant response rating, Radish, Wild [13, 15]: 100
Plant response rating, Radish, Wild [13, 16]: 100
Plant response rating (scale of 0 to 100), Radish, Wild ([13]; Preemergence, 31 g ai/ha): 40
Plant response rating, Radish, Wild [13, 17]: 70
Plant response rating, Radish, Wild [13, 18]: 100
Plant response rating, Radish, Wild [13, 19]: 100
Plant response rating, Radish, Wild [13, 20]: 100
